Assay results taken from PMC11766267 (International Journal of Molecular Sciences, 2025).
Values joined by “and” are separate entries in the source; they are usually repeats but may differ in a detail not shown here. Identical values can stand only once. Like-named read-outs stand apart in the source and are kept apart here.

Columns and labels:
[1] = target: T1, aromatase (CYP19A, EC 1.14.14.14) (Homo sapiens, UniProt P11511); test: biochemical
T1 construct: Microsomal samples were isolated from tissue using the Microsome Isolation Kit; tissue BioVision K983-100; host or cells: microsomes from an unnamed tissue
T1 sequence (P11511 1-503): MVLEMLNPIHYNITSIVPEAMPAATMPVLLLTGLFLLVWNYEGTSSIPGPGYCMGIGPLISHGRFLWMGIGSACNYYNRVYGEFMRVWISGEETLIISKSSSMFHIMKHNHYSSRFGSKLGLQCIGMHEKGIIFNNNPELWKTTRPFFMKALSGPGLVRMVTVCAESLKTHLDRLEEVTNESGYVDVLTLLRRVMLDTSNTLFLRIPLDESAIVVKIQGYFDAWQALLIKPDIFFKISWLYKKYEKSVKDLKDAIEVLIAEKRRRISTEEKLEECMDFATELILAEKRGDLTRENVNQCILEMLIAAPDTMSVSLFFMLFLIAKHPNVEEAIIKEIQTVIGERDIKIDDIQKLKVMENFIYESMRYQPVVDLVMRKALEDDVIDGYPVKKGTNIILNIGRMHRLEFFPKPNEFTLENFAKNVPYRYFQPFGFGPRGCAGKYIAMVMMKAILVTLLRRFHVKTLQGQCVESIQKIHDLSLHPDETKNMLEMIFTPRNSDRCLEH
Protocol: In vitro aromatase assay was performed using the BioVision Aromatase Activity Assay Kit (Catalog # K983-100; BioVision, Milpitas, CA, USA). Microsomal samples were isolated from tissue using the Microsome Isolation Kit (Cat. #K249; BioVision, Milpitas, CA, USA). A standard curve was established by diluting the Fluorescence Standard provided in the kit to create a 0.5 pmole/µL solution, followed by setting up a series of standards in a white 96-well plate, adjusting the total volume to 100 µL with aromatase assay buffer. For each reaction well, a 2X concentrated mix was prepared by adding 2–48 µL of the microsomal sample and 2 µL of the NADPH generating system, bringing the final volume to 50 µL with aromatase assay buffer. Background controls (no enzyme) and positive controls (with recombinant aromatase) were included. […] After a 10 min incubation at 37 °C, 30 µL of the substrate/NADP+ mixture was added to each well, and fluorescence was measured immediately in kinetic mode for 60 min at 37 °C. Finally, the change in fluorescence was calculated to determine the specific activity of aromatase using the formula provided in the kit protocol.

HER2 = HER2 (Homo sapiens, UniProt P04626); test: In vitro protein kinase inhibition assay (ELISA kit), HER2
Chain of HER2 (P04626 23-1255): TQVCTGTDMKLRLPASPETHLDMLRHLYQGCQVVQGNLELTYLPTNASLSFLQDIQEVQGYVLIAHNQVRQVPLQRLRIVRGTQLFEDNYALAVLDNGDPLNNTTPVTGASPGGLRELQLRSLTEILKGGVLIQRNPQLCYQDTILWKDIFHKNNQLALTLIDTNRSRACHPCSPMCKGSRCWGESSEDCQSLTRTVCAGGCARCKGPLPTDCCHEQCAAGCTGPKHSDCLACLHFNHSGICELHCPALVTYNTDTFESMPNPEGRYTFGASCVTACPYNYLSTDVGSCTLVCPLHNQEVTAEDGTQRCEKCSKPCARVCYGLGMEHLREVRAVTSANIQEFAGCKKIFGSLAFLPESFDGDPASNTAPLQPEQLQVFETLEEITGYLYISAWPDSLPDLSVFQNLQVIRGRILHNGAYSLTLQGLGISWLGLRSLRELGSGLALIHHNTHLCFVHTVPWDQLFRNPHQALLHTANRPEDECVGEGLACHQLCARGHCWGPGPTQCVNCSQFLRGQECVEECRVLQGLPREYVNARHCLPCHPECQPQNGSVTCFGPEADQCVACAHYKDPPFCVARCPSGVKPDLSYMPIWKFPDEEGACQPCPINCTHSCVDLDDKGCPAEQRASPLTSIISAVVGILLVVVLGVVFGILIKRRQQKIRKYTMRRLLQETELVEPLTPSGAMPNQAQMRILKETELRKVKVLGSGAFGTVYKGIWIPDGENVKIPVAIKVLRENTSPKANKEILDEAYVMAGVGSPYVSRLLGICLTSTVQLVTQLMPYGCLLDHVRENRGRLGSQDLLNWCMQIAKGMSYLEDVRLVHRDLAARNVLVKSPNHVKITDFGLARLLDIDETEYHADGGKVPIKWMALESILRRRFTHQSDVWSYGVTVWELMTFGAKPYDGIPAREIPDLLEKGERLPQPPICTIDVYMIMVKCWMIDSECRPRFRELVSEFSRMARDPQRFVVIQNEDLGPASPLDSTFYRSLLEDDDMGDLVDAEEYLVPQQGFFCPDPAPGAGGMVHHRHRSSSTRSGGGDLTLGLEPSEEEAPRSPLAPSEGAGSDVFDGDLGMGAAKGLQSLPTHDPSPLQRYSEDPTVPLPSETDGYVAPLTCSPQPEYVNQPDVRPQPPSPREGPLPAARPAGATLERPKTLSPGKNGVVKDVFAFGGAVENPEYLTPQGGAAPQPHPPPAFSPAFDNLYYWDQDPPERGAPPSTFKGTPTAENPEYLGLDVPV

MDA-MB-231 = test: MTT cytotoxicity assay, MDA-MB-231; type: cell-based; conditions: Homo sapiens, 24 h treatment, mean ± SD of triplicate
Procedure, shortened: (§1)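 Cells reduce MTT to an insoluble formazan. Dimethyl sulfoxide was introduced to dissolve it prior to reading.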

MCF-7a = test: In vitro anti-estrogenic activity assay, MCF-7a
MCF-7 [2] = test: In vitro anti-estrogenic activity assay, MCF-7
CDK2 = CDK2 (Homo sapiens, UniProt P24941); test: In vitro protein kinase inhibition assay (ELISA kit), CDK2
HeLa = test: MTT cytotoxicity assay, HeLa; type: cell-based; conditions: Homo sapiens, 24 h treatment, mean ± SD of triplicate
Procedure, shortened: as §1

HCT-116 = test: MTT cytotoxicity assay, HCT-116; type: cell-based; conditions: Homo sapiens, 24 h treatment, mean ± SD of triplicate
Procedure, shortened: as §1

VEGFR-2 = VEGFR-2 (Homo sapiens, UniProt P35968); test: In vitro protein kinase inhibition assay (ELISA kit), VEGFR-2
Chain of VEGFR-2 (P35968 20-1356): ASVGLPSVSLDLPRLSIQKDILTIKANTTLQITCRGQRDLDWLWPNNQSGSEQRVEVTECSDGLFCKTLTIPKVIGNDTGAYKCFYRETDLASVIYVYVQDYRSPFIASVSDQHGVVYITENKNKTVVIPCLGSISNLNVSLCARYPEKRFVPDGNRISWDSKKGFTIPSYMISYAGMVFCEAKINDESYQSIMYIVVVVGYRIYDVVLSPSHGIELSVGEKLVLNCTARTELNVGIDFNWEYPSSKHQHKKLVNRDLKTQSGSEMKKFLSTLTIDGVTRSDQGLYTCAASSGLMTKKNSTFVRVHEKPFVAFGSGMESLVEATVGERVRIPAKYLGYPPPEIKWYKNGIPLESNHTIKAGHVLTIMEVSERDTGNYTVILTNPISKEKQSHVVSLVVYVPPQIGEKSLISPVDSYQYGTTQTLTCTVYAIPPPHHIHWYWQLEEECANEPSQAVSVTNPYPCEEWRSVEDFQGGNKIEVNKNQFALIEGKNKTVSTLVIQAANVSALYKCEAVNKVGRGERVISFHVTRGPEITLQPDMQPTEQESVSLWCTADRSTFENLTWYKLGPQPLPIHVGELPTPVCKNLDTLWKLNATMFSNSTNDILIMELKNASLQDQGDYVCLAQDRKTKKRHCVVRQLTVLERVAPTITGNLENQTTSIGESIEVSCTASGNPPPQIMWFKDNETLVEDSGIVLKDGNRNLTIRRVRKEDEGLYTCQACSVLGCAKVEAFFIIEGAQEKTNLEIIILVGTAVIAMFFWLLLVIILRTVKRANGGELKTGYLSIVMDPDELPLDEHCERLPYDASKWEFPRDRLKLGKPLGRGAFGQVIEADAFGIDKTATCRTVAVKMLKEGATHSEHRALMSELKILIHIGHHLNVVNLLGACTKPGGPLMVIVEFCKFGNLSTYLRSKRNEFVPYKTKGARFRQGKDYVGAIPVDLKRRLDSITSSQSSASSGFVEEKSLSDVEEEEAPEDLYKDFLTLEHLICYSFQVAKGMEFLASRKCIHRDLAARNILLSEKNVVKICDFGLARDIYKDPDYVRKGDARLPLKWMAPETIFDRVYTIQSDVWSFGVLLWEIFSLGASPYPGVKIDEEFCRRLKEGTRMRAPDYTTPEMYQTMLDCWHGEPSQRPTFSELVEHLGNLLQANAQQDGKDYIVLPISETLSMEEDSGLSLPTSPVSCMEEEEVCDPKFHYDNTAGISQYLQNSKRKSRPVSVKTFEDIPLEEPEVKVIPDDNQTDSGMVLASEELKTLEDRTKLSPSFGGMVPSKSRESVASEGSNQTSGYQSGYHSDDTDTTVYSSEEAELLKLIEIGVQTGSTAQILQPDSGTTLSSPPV

MCF-7 [3] = test: MTT cytotoxicity assay, MCF-7; type: cell-based, human; conditions: Homo sapiens, MCF7, 24 h, 24 h treatment, mean ± SD of triplicate
Procedure, shortened: as §1

[4] = MTT cytotoxicity assay, normal cell line WI-38; type: cell-based, human; conditions: human, WI-38 cells (normal human lung fibroblasts), normal (non-cancer) cell line, 24 h treatment
Procedure, shortened: as §1

EGFR = EGFR (Homo sapiens, UniProt P00533); test: In vitro protein kinase inhibition assay (ELISA kit), EGFR
Chain of EGFR (P00533 25-1210): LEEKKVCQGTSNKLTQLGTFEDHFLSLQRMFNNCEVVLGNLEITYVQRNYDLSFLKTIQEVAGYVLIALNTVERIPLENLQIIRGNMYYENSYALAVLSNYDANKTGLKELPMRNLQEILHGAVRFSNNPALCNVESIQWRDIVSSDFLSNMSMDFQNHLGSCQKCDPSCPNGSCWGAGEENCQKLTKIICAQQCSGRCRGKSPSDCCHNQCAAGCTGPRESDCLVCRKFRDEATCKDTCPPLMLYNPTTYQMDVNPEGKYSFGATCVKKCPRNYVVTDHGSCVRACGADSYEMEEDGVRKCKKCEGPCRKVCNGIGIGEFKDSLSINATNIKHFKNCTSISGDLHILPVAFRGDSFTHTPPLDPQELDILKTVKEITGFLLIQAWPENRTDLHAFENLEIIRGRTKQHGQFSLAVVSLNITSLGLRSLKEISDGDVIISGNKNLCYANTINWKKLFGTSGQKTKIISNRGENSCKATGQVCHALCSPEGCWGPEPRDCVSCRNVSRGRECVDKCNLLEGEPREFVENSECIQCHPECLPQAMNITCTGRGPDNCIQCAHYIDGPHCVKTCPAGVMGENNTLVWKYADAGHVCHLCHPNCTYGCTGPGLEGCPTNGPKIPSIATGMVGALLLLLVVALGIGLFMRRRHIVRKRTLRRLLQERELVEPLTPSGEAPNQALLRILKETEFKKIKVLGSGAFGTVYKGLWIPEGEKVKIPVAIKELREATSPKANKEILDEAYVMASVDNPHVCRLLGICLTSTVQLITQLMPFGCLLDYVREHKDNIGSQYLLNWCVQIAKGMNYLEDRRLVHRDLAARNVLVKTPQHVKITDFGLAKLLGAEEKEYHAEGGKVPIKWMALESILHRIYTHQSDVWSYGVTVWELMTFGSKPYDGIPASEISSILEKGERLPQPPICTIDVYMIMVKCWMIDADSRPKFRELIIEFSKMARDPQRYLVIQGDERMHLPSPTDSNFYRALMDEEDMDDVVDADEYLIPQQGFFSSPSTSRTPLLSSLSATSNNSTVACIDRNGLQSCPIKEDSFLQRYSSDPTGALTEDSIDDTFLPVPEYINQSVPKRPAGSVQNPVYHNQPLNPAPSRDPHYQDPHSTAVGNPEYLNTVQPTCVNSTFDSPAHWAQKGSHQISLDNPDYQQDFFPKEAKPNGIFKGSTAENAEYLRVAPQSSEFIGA

[5] = system: HCT-116, MDA-MB-231, HeLa, and MCF-7; test: MTT cytotoxicity assay, ranges stated over several cell lines; type: cell-based; conditions: Homo sapiens, range over the compounds named
Procedure, shortened: as §1

[6] = cell count relative to the control (17β-E2)

## COc1cccc(C(=O)/C=C/c2ccc(OCc3ccccc3)cc2)c1 [Compound 4q, (E)-3-(4-(Benzyloxy)phenyl)-1-(3-methoxyphenyl)prop-2-en-1-one]
[1]; 0.01 µM, individual Data 1-3
  Inhibition (%) Aromatase: 6.6% and 8.9%
[1]; 0.1 µM, individual Data 1-3
  Inhibition (%) Aromatase: 17.9% and 20.7%
[1]; 1 µM, individual Data 1-3
  Inhibition (%) Aromatase: 54% and 53.8%
[1]; 10 µM, individual Data 1-3
  Inhibition (%) Aromatase: 81.5% and 83.9%
[1]; 100 µM, individual Data 1-3
  Inhibition (%) Aromatase: 91.6% and 93.8%
[1]; mean ± SD of triplicate, approximate values, read-out: Aromatase Inhibition IC50
  IC50: 901 nM and 801 nM
[1]; read-out: Inhibition (%) Aromatase, 0.01 µM, individual Data 1-3
  inhibition at 0.01 µM: 7.8%
[1]; read-out: Inhibition (%) Aromatase, 0.1 µM, individual Data 1-3
  inhibition at 0.1 µM: 19%
[1]; read-out: Inhibition (%) Aromatase, 1 µM, individual Data 1-3
  inhibition at 1 µM: 55.9%
[1]; read-out: Inhibition (%) Aromatase, 10 µM, individual Data 1-3
  inhibition at 10 µM: 82%
[1]; read-out: Inhibition (%) Aromatase, 100 µM, individual Data 1-3
  inhibition at 100 µM: 92%
HER2
  IC50: ~144 nM
HER2; 0.01 µM, individual Data 1-3
  Inhibition (%) Her2: 25% and 25.9%
HER2; 0.1 µM, individual Data 1-3
  Inhibition (%) Her2: 47.70% and 48.76%
HER2; 1 µM, individual Data 1-3
  Inhibition (%) Her2: 68.30% and 69.5%
HER2; 10 µM, individual Data 1-3
  Inhibition (%) Her2: 86.89% and 87.78%
HER2; 100 µM, individual Data 1-3
  Inhibition (%) Her2: 95.7% and 96.9%
HER2; read-out: Inhibition % at 0.1 µM HER2, 0.1 µM, the data between the highest and lowest values
  inhibition at 0.1 µM: 48%
HER2; read-out: Inhibition (%) Her2, 0.01 µM, individual Data 1-3
  inhibition at 0.01 µM: 25.6%
HER2; read-out: Inhibition (%) Her2, 0.1 µM, individual Data 1-3
  inhibition at 0.1 µM: 48%
HER2; read-out: Inhibition (%) Her2, 1 µM, individual Data 1-3
  inhibition at 1 µM: 68.9%
HER2; read-out: Inhibition (%) Her2, 10 µM, individual Data 1-3
  inhibition at 10 µM: 87.3%
HER2; read-out: Inhibition (%) Her2, 100 µM, individual Data 1-3
  inhibition at 100 µM: 96.2%
MDA-MB-231
  IC50: 13.6 ± 1.1 µM
MCF-7a; [6]
  Cell Proliferation MCF-7a %: 99%
MCF-7a; mean ± SD of triplicate
  Cell Proliferation MCF-7a Cell Count: 20,630 ± 595
MCF-7a; relative to control
  Inhibition in MCF-7a: 1%
MCF-7 [2]; [6]
  Cell Proliferation MCF-7 %: 37%
MCF-7 [2]; mean ± SD of triplicate
  Cell Proliferation MCF-7 Cell Count: 6874 ± 245
MCF-7 [2]; relative to control
  Reduction of growth/cell count (inhibition) in MCF-7: 63%
CDK2
  IC50: ~170 nM
CDK2; 0.01 µM, individual Data 1-3
  Inhibition (%) CDK2: 24.8% and 25.2%
CDK2; 0.1 µM, individual Data 1-3
  Inhibition (%) CDK2: 41.7% and 42.2%
CDK2; 1 µM, individual Data 1-3
  Inhibition (%) CDK2: 70.9% and 71.2%
CDK2; 10 µM, individual Data 1-3
  Inhibition (%) CDK2: 87.8% and 88.3%
CDK2; 100 µM, individual Data 1-3
  Inhibition (%) CDK2: 96% and 96.6%
CDK2; read-out: Inhibition % at 0.1 µM CDK2, 0.1 µM, the data between the highest and lowest values
  inhibition at 0.1 µM: 41.9%
CDK2; read-out: Inhibition (%) CDK2, 0.01 µM, individual Data 1-3
  inhibition at 0.01 µM: 25.1%
CDK2; read-out: Inhibition (%) CDK2, 0.1 µM, individual Data 1-3
  inhibition at 0.1 µM: 41.9%
CDK2; read-out: Inhibition (%) CDK2, 1 µM, individual Data 1-3
  inhibition at 1 µM: 71.1%
CDK2; read-out: Inhibition (%) CDK2, 10 µM, individual Data 1-3
  inhibition at 10 µM: 88.1%
CDK2; read-out: Inhibition (%) CDK2, 100 µM, individual Data 1-3
  inhibition at 100 µM: 96.3%
HeLa
  IC50: 22.6 ± 1.7 µM
HCT-116
  IC50: 17.1 ± 1.3 µM
VEGFR-2
  IC50: 287 ± 10 nM
VEGFR-2; 0.01 µM, individual Data 1-3
  Inhibition (%) VEGFR2: 16.9%
VEGFR-2; 0.1 µM, individual Data 1-3
  Inhibition (%) VEGFR2: 38.9% and 39.1%
VEGFR-2; 1 µM, individual Data 1-3
  Inhibition (%) VEGFR2: 66.7% and 66.4%
VEGFR-2; 10 µM, individual Data 1-3
  Inhibition (%) VEGFR2: 87.1% and 87.6%
VEGFR-2; 100 µM, individual Data 1-3
  Inhibition (%) VEGFR2: 95.4% and 95.9%
VEGFR-2; read-out: Inhibition (%) VEGFR2, 0.01 µM, individual Data 1-3
  inhibition at 0.01 µM: 17%
VEGFR-2; read-out: Inhibition (%) VEGFR2, 0.1 µM, individual Data 1-3
  inhibition at 0.1 µM: 39%
VEGFR-2; read-out: Inhibition (%) VEGFR2, 1 µM, individual Data 1-3
  inhibition at 1 µM: 66.8%
VEGFR-2; read-out: Inhibition (%) VEGFR2, 10 µM, individual Data 1-3
  inhibition at 10 µM: 87.3%
VEGFR-2; read-out: Inhibition (%) VEGFR2, 100 µM, individual Data 1-3
  inhibition at 100 µM: 95.7%
MCF-7 [3]
  IC50: 11.6 ± 0.9 µM
[4]
  IC50 at 24 h: > 100 µM
EGFR
  IC50: 151 ± 5 nM
EGFR; 0.01 µM, individual Data 1-3
  Inhibition (%) EGFR: 22.9% and 24.2%
EGFR; 0.1 µM, individual Data 1-3
  Inhibition (%) EGFR: 45.2% and 47.5%
EGFR; 1 µM, individual Data 1-3
  Inhibition (%) EGFR: 71.9% and 70.2%
EGFR; 10 µM, individual Data 1-3
  Inhibition (%) EGFR: 86.9% and 90%
EGFR; 100 µM, individual Data 1-3
  Inhibition (%) EGFR: 95.6% and 97.9%
EGFR; read-out: Inhibition (%) EGFR, 0.01 µM, individual Data 1-3
  inhibition at 0.01 µM: 23.4%
EGFR; read-out: Inhibition (%) EGFR, 0.1 µM, individual Data 1-3
  inhibition at 0.1 µM: 46.8%
EGFR; read-out: Inhibition (%) EGFR, 1 µM, individual Data 1-3
  inhibition at 1 µM: 72%
EGFR; read-out: Inhibition (%) EGFR, 10 µM, individual Data 1-3
  inhibition at 10 µM: 88.4%
EGFR; read-out: Inhibition (%) EGFR, 100 µM, individual Data 1-3
  inhibition at 100 µM: 96.3%
[5]; HCT-116 and HeLa, read-out: IC50 values, range against HCT-116 and HeLa
  IC50: 6590 to 22600 nM
[5]; MDA-MB-231 and MCF-7, read-out: IC50 values, range against MDA-MB-231 and MCF-7
  IC50: 2080 to 13600 nM
